In US7534801B2, “Piperidinylchromen-6-ylsulfonamide compounds as 5-hydroxytryptamine-6 ligands” (Wyeth, priority 2003, dated 2009) one finds Ki and melting point data, which are given here for 4 compounds.

Counter-ions that a name gives are not always drawn.

For series [1], the target named is human cloned 5-HT6 receptors (Homo sapiens, UniProt P50406).
Sequence of human cloned 5-HT6 receptors (P50406 whole entry): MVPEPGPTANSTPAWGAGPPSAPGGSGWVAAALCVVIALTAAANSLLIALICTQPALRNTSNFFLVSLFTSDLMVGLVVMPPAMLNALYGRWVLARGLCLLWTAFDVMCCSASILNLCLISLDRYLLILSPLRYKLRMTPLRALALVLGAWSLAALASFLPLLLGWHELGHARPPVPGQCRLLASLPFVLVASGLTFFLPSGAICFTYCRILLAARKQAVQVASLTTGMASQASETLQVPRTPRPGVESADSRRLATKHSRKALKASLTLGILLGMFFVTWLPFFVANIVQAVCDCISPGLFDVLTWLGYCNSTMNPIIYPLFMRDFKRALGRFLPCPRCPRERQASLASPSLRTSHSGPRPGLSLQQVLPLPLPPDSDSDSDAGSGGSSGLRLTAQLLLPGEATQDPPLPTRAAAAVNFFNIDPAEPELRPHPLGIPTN

What is called Ki is a measure of affinity in units of concentration, obtained from inhibition or displacement. Read a low Ki as higher affinity. On to `O=S(=O)(Nc1ccc2c(c1)C(C1CCNCC1)=CCO2)c1ccccc1` [Example 14, N(4-Piperidin-4-yl-2H-chromen-6-yl)benzenesulfonamide Hemihydrate], for which, in series [1], the Ki was determined as 1 nM.
One may read the melting point as the temperature, or range, at which the solid turns liquid. The compound `O=S(=O)(Nc1ccc2c(c1)C(C1CCNCC1)=CCO2)c1ccc(Cl)cc1` [Example 15, 4-chloro-N-(4-piperidin-4-yl-2H-chromen-6-yl)benzenesulfonamide] gave a melting point above 240 °C. The compound also returned an inhibition constant Ki in series [1] of 2 nM.
In series [1], `O=S(=O)(Nc1ccc2c(c1)C(C1CCNCC1)=CCO2)c1cccc2ccccc12` [Example 16, N-(4-piperidin-4-yl-2H-chromen-6-yl)naphthalene-1-sulfonamide] had a Ki of 2 nM.
Consider `O=S(=O)(Nc1ccc2c(c1)C(C1CCNCC1)CCO2)c1ccccc1` (centres unmarked) [Example 23, N(4-Piperidin-4-dihydro-2H-chromen-6-yl)benzenesulfonamid Hydrochloride], for which, in series [1], the inhibitory constant (Ki) turned out to be 12 nM.
